Here are results for twelve molecules from patent publication US11771709B2, “ALK protein degradation agent and anti-tumor application thereof” (ShanghaiTech University, priority 2017, dated 2023).

The IC50 is the point on the concentration scale where inhibition reaches its midpoint. High values mean a need for much substance, low ones inhibition by little substance. By DC50 is commonly meant the concentration at which degradation of the target reaches its halfway point. A lower DC50 goes with degradation at low concentration.

The test system of one assay is SR (NPM-ALK) cells. Nature of the assay: Growth inhibition IC50 in ALCL SR cells (CCK8/WST, 72 hours). Particulars: SR cells, WST. Format: cell-based.
In assay [1] the target is T1, ALK protein in H3122 (EML4-ALK) cells (Homo sapiens, UniProt Q9UM73).
T1 construct: EML4 (Echinoderm microtubule-associated protein-like 4, Q9HC35) fusion partner, variant 1; host or cells: NCI-H3122 lung adenocarcinoma cells; the other entry of the earlier key: EML4 (Q9HC35, Echinoderm microtubule-associated protein-like 4)
In words: Western blot of ALK protein level (degradation, DC50), ALK phosphorylation and downstream signaling in H3122 cells. It counts as cell-based. To be noted: ALK protein degradation in H3122 cells. On the technique in general: In western blotting, separated proteins are transferred to a membrane and probed.
Description: Cancer cells were seeded in 1 ml RPMI1640 medium in 24-well plate at the density of 3×10^5 or 1.5×10^5 cells/ml. […] Then cells were washed twice with PBS and lyzed in RIPA lysis buffer with Halt Proteinase and Phosphotase inhibitor. Equal amount of proteins were loaded to run SDS-PAGE gels after denature. The gels were blotted to PVDF membrane. After incubating with first and secondary antibodies, the images were developed using SuperSignal West Pico Chemiluminescent Substrate.
DC50 (concentration required to degrade protein by half) were calculated based on the intensity from western blot, and data were analyzed via Prism GraphPad with non-linear regression.

[2] abbreviates: Alectinib based ALK PROTAD compounds (Table 4).
Where [3] appears, read: 72 h, Brigatinib-based PROTAD molecules (Table 3).

Each structure is given as a SMILES string.

T1 sequence (Q9UM73 with tags, fused parts or gaps): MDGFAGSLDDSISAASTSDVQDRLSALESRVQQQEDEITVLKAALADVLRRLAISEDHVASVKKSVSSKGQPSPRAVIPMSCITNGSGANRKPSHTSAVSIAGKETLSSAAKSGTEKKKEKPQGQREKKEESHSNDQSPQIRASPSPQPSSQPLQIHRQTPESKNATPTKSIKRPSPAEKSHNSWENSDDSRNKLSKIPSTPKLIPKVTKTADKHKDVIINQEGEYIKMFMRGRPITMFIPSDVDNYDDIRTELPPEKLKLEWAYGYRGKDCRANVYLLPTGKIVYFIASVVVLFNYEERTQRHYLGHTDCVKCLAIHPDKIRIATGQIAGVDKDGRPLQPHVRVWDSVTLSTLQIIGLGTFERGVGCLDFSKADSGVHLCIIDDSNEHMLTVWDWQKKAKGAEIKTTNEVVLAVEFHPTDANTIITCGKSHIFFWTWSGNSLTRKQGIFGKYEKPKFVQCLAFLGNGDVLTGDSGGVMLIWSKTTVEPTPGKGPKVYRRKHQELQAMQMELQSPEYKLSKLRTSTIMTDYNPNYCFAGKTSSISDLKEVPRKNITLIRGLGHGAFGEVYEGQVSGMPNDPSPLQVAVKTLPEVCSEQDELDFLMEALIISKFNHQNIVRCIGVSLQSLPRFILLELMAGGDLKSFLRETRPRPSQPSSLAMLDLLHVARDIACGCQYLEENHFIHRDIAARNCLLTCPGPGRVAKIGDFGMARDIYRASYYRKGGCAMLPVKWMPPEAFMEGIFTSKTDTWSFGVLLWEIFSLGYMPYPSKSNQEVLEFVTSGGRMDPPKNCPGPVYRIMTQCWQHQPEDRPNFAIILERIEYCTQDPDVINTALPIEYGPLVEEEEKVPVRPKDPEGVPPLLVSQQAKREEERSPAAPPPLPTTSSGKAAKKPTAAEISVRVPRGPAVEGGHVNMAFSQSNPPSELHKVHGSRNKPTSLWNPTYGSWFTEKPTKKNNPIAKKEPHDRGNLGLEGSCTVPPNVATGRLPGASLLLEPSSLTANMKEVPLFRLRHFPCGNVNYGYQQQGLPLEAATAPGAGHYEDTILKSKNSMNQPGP
Description for SR (NPM-ALK) cells: SR (NPM-ALK) and NCI-H2228 (EML4-ALK, V3) cells were purchased from ATCC. […] All Cells were cultured in RPMI1640 medium with 10% FBS and Penicillin-Streptomycin in 37° C. incubator with 5% CO2.
Cells were seeded at specific density in 96 well plates one day before treatment. […] Viable cells were measured via CCK8 reagent and IC50s were calculated via Prism Graphad. Experiments were repeated at least three times.

Molecule `CCc1cc2c(cc1N1CCN(C(=O)CCCC(=O)N[C@H](C(=O)N3C[C@H](O)C[C@H]3C(=O)NCc3ccc(-c4scnc4C)cc3)C(C)(C)C)CC1)C(C)(C)c1[nH]c3cc(C#N)ccc3c1C2=O` [SIAIS164094, (2S,4R)-1-((S)-2-(5-(4-(3-cyano-9-ethyl-6,6-dimethyl-11-oxo-6,11-dihydro-5H-benzo[b]carbazol-8-yl)piperazin-1-yl)-5-oxopentanamido)-3,3-dimethylbutanoyl)-4-hydroxy-N-(4-(4-methylthiazol-5-yl)benzyl)pyrrolidine-2-carboxamide] showed an IC50 with SR (NPM-ALK) cells (setting [2]) of 0.124 µM. In assay [1], the DC50 was in the range of 20 to 100 nM.

Regarding `CCc1cc2c(cc1N1CCN(C(=O)CCCc3cn(CCCC(=O)N[C@H](C(=O)N4C[C@H](O)C[C@H]4C(=O)NCc4ccc(-c5scnc5C)cc4)C(C)(C)C)nn3)CC1)C(C)(C)c1[nH]c3cc(C#N)ccc3c1C2=O` [SIAIS164155, (2S,4R)-1-((S)-2-(4-(4-(4-(4-(3-cyano-9-ethyl-6,6-dimethyl-11-oxo-6,11-dihydro-5H-benzo[b]carbazol-8-yl)piperazin-1-yl)-4-oxobutyl)-1H-1,2,3-triazol-1-yl)butanamido)-3,3-dimethylbutanoyl)-4-hydroxy-N-(4-(4-methylthiazol-5-yl)benzyl)pyrrolidine-2-carboxamide], half-maximal inhibition in the assay on SR (NPM-ALK) cells (setting [2]) (IC50) was put at 0.104 µM. This molecule registered a DC50 in assay [1] of 10 to 50 nM.

`COc1cc(N2CCC(NC(=O)CCC(=O)NCCNc3cccc4c3C(=O)N(C3CCC(=O)NC3=O)C4=O)CC2)ccc1Nc1ncc(Cl)c(Nc2ccccc2P(C)(C)=O)n1` (stereo not drawn) [SIAIS164157, N1-(1-(4-((5-chloro-4-((2-(dimethylphosphoryl)phenyl)amino)pyrimidin-2-yl)amino)-3-methoxyphenyl)piperidin-4-yl)-N4-(2-((2-(2,6-dioxopiperidin-3-yl)-1,3-dioxoisoindolin-4-yl)amino)ethyl)succinamide] gave an IC50 in the assay on SR (NPM-ALK) cells (setting [3]) of 0.0157 ± 0.015 µM. Also, the DC50 in assay [1] was 1 to 50 nM.

`COc1cc(N2CCN(C(=O)CCOCCOCCC(=O)N[C@H](C(=O)N3C[C@H](O)C[C@H]3C(=O)NCc3ccc(-c4scnc4C)cc3)C(C)(C)C)CC2)ccc1Nc1ncc(Cl)c(Nc2ccccc2P(C)(C)=O)n1` [SIAIS197079, (2S,4R)-1-((S)-2-(3-(2-(3-(4-(4-((5-chloro-4-((2-(dimethylphosphoryl)phenyl)amino)pyrimidin-2-yl)amino)-3-methoxyphenyl)piperazin-1-yl)-3-oxopropoxy)ethoxy)propanamido)-3,3-dimethylbutanoyl)-4-hydroxy-N-(4-(4-methylthiazol-5-yl)benzyl)pyrrolidine-2-carboxamide] registered an IC50 with SR (NPM-ALK) cells (setting [3]) of 0.0159 ± 0.0085 µM. Besides, the DC50 in assay [1] was in the range of 50 to 500 nM.

`COc1cc(N2CCN(C(=O)CCNc3cccc4c3C(=O)N(C3CCC(=O)NC3=O)C4=O)CC2)ccc1Nc1ncc(Cl)c(Nc2ccccc2P(C)(C)=O)n1` (stereo not drawn) [SIAIS1197057, 4-((3-(4-(4-((5-chloro-4-((2-(dimethylphosphoryl)phenyl)amino)pyrimidin-2-yl)amino)-3-methoxyphenyl)piperazin-1-yl)-3-oxopropyl)amino)-2-(2,6-dioxopiperidin-3-yl)isoindoline-1,3-dione] showed an IC50 with SR (NPM-ALK) cells (setting [3]) of 0.0177 ± 0.0096 µM. Moreover, the DC50 in assay [1] fell in the range of 50 to 500 nM.

For `COc1cc(N2CCN(C(=O)CCCNc3cccc4c3C(=O)N(C3CCC(=O)NC3=O)C4=O)CC2)ccc1Nc1ncc(Cl)c(Nc2ccccc2P(C)(C)=O)n1` (stereo not drawn) [SIAIS1197059, 4-((4-(4-(4-((5-chloro-4-((2-(dimethylphosphoryl)phenyl)amino)pyrimidin-2-yl)amino)-3-methoxyphenyl)piperazin-1-yl)-4-oxobutyl)amino)-2-(2,6-dioxopiperidin-3-yl)isoindoline-1,3-dione], in the assay with SR (NPM-ALK) cells (setting [3]), the IC50 amounted to 0.0107 ± 0.0062 µM. Further, in assay [1], the DC50 was 1 to 50 nM.

In turn, `COc1cc(N2CCN(C(=O)CCCCNc3cccc4c3C(=O)N(C3CCC(=O)NC3=O)C4=O)CC2)ccc1Nc1ncc(Cl)c(Nc2ccccc2P(C)(C)=O)n1` (stereo not drawn) [SIAIS1197061, 4-((5-(4-(4-((5-chloro-4-((2-(dimethylphosphoryl)phenyl)amino)pyrimidin-2-yl)amino)-3-methoxyphenyl)piperazin-1-yl)-5-oxopentyl)amino)-2-(2,6-dioxopiperidin-3-yl)isoindoline-1,3-dione] came in with an IC50 with SR (NPM-ALK) cells (setting [3]) of 0.008 ± 0.0044 µM. The DC50 in assay [1] was in the range of 50 to 500 nM.

The molecule `COc1cc(N2CCN(C(=O)CCCCCNc3cccc4c3C(=O)N(C3CCC(=O)NC3=O)C4=O)CC2)ccc1Nc1ncc(Cl)c(Nc2ccccc2P(C)(C)=O)n1` (stereo not drawn) [SIAIS1197063, 4-((6-(4-(4-((5-chloro-4-((2-(dimethylphosphoryl)phenyl)amino)pyrimidin-2-yl)amino)-3-methoxyphenyl)piperazin-1-yl)-6-oxohexyl)amino)-2-(2,6-dioxopiperidin-3-yl)isoindoline-1,3-dione] gave an IC50 in the assay with SR (NPM-ALK) cells (setting [3]) of 0.0141 ± 0.0073 µM. Also, in assay [1], the DC50 was 50 to 500 nM.

For the molecule `COc1cc(N2CCN(C(=O)CCOCCNc3cccc4c3C(=O)N(C3CCC(=O)NC3=O)C4=O)CC2)ccc1Nc1ncc(Cl)c(Nc2ccccc2P(C)(C)=O)n1` (stereo not drawn) [SIAIS1197065, 4-((2-(3-(4-(4-((5-chloro-4-((2-(dimethylphosphoryl)phenyl)amino)pyrimidin-2-yl)amino)-3-methoxyphenyl)piperazin-1-yl)-3-oxopropoxy)ethyl)amino)-2-(2,6-dioxopiperidin-3-yl)isoindoline-1,3-dione], the IC50 with SR (NPM-ALK) cells (setting [3]) worked out at 0.0207 ± 0.0149 µM. Moreover, the DC50 in assay [1] lay within 100 to 500 nM.

In the assay with SR (NPM-ALK) cells (setting [3]), `COc1cc(N2CCN(C(=O)CCOCCOCCNc3cccc4c3C(=O)N(C3CCC(=O)NC3=O)C4=O)CC2)ccc1Nc1ncc(Cl)c(Nc2ccccc2P(C)(C)=O)n1` (stereo not drawn) [SIAIS1197067, 4-((2-(2-(3-(4-(4-((5-chloro-4-((2-(dimethylphosphoryl)phenyl)amino)pyrimidin-2-yl)amino)-3-methoxyphenyl)piperazin-1-yl)-3-oxopropoxy)ethoxy)ethyl)amino)-2-(2,6-dioxopiperidin-3-yl)isoindoline-1,3-dione] yielded an IC50 of 0.0161 ± 0.0061 µM. Moreover, in assay [1], the DC50 lay in the range of 100 to 500 nM.

Consider `COc1cc(N2CCN(C(=O)CCOCCOCCOCCNc3cccc4c3C(=O)N(C3CCC(=O)NC3=O)C4=O)CC2)ccc1Nc1ncc(C)c(Nc2ccccc2P(C)(C)=O)n1` (stereo not drawn) [SIAIS1197069, 4-((2-(2-(2-(3-(4-(4-((4-((2-(dimethylphosphoryl)phenyl)amino)-5-methylpyrimidin-2-yl)amino)-3-methoxyphenyl)piperazin-1-yl)-3-oxopropoxy)ethoxy)ethoxy)ethyl)amino)-2-(2,6-dioxopiperidin-3-yl)isoindoline-1,3-dione], for which the IC50 with SR (NPM-ALK) cells (setting [3]) is 0.0223 ± 0.0182 µM. In assay [1], this molecule gave a DC50 of 100 to 500 nM.

Regarding `COc1cc(N2CCN(C(=O)CCOCCOCCOCCOCCOCCNc3cccc4c3C(=O)N(C3CCC(=O)NC3=O)C4=O)CC2)ccc1Nc1ncc(Cl)c(Nc2ccccc2P(C)(C)=O)n1` (stereo not drawn) [SIAIS1197073, 4-((18-(4-(4-((5-chloro-4-((2-(dimethylphosphoryl)phenyl)amino)pyrimidin-2-yl)amino)-3-methoxyphenyl)piperazin-1-yl)-18-oxo-3,6,9,12,15-pentaoxaoctadecyl)amino)-2-(2,6-dioxopiperidin-3-yl)isoindoline-1,3-dione], the IC50 in the assay with SR (NPM-ALK) cells (setting [3]) was 0.0342 ± 0.0239 µM. Further, the 50% degradation concentration (DC50) in assay [1] was in the range of 100 to 500 nM.
